Measurements published in PubChem BioAssay (NCI).
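Grown in 96-well plates, cells were treated for 48 hours with each compound at five concentrations. Insufficient inhibition: endpoint recorded as highest concentration tested. TGI is the concentration that stops growth completely.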

Tests used:
Experiment in all cases: DTP human tumour cell line panel, 48 h
[1] = tested on: HOP-92 NSCLC
[2] = tested on: NCI/ADR-RES ovarian
[3] = tested on: OVCAR-8 ovarian
[4] = tested on: MALME-3M melanoma
[5] = tested on: K-562 leukemia
[6] = tested on: MDA-MB-435
[7] = tested on: SK-MEL-28 melanoma
[8] = tested on: OVCAR-4 ovarian
[9] = tested on: HCT-15 colon
[10] = tested on: HOP-62 NSCLC
[11] = tested on: MDA-N
[12] = tested on: A549 NSCLC
[13] = tested on: NCI-H23 lung
[14] = tested on: HL-60(TB) leukemia
[15] = tested on: COLO 205 colon
[16] = tested on: HCC-2998 colon
[17] = tested on: KM12 colon
[18] = tested on: PC-3 prostate
[19] = tested on: CCRF-CEM leukemia
[20] = tested on: NCI-H522 lung
[21] = tested on: OVCAR-5 ovarian
[22] = tested on: NCI-H226 lung
[23] = tested on: UACC-62 melanoma
[24] = tested on: NCI-H460 lung
[25] = tested on: U251 CNS
[26] = tested on: 786-0 renal
[27] = tested on: MOLT-4 leukemia
[28] = tested on: IGROV1 ovarian
[29] = tested on: MDA-MB-231 breast
[30] = tested on: MCF7 breast
[31] = tested on: SN12C renal
[32] = tested on: RPMI-8226 leukemia
[33] = tested on: SK-OV-3 ovarian
[34] = tested on: BT-549 breast
[35] = tested on: SK-MEL-2 melanoma
[36] = tested on: TK-10 renal
[37] = tested on: LOX IMVI melanoma
[38] = tested on: T-47D breast
[39] = tested on: ACHN renal
[40] = tested on: DU-145 prostate
[41] = tested on: SK-MEL-5 melanoma
[42] = tested on: SNB-19 CNS
[43] = tested on: EKVX NSCLC
[44] = tested on: UACC-257 melanoma
[45] = tested on: HCT-116 colon
[46] = tested on: SNB-75 CNS
[47] = tested on: CAKI-1 renal
[48] = tested on: SF-539 CNS
[49] = tested on: HT29 colon
[50] = tested on: SR leukemia
[51] = tested on: RXF 393 renal
[52] = tested on: SW-620 colon
[53] = tested on: M14 melanoma
[54] = tested on: OVCAR-3 ovarian
[55] = tested on: SF-295 CNS
[56] = tested on: UO-31 renal
[57] = tested on: A498 renal
[58] = tested on: HS 578T breast
[59] = tested on: SF-268 CNS

N#CCCN(CCCN(C(=O)Nc1ccccc1)c1ccccc1)C(=O)Nc1ccccc1
TGI [1]: > 100 µM | TGI [2]: > 100 µM | TGI [3]: > 100 µM | TGI [4]: > 100 µM | TGI [5]: > 100 µM | TGI [6]: > 100 µM | TGI [7]: > 100 µM | TGI [8]: > 100 µM | TGI [9]: > 100 µM | TGI [10]: > 100 µM | TGI [11]: > 100 µM | TGI [12]: > 100 µM | TGI [13]: > 100 µM | TGI [14]: > 100 µM | TGI [15]: > 100 µM | TGI [16]: > 100 µM | TGI [17]: > 100 µM | TGI [18]: > 100 µM | TGI [19]: > 100 µM | TGI [20]: > 100 µM | TGI [21]: > 100 µM | TGI [22]: > 100 µM | TGI [23]: > 100 µM | TGI [24]: > 100 µM | TGI [25]: > 100 µM | TGI [26]: > 100 µM | TGI [27]: > 100 µM | TGI [28]: > 100 µM | TGI [29]: > 100 µM | TGI [30]: > 100 µM | TGI [31]: > 100 µM | TGI [32]: > 100 µM | TGI [33]: > 100 µM | TGI [34]: > 100 µM | TGI [35]: > 100 µM | TGI [36]: > 100 µM | TGI [37]: > 100 µM | TGI [38]: > 100 µM | TGI [39]: > 100 µM | TGI [40]: > 100 µM | TGI [41]: > 100 µM | TGI [42]: > 100 µM | TGI [43]: > 100 µM | TGI [44]: > 100 µM | TGI [45]: > 100 µM | TGI [46]: > 100 µM | TGI [47]: 28.6 µM | TGI [48]: > 100 µM | TGI [49]: > 100 µM | TGI [50]: > 100 µM | TGI [51]: > 100 µM | TGI [52]: > 100 µM | TGI [53]: > 100 µM | TGI [54]: > 100 µM | TGI [55]: > 100 µM | TGI [56]: > 100 µM

O=c1[nH]nc(Cc2ccc(Cl)cc2)n1O
TGI [1]: > 100 µM | TGI [2]: > 100 µM | TGI [3]: > 100 µM | TGI [4]: > 100 µM | TGI [5]: > 100 µM | TGI [6]: > 100 µM | TGI [7]: > 100 µM | TGI [8]: > 100 µM | TGI [9]: > 100 µM | TGI [10]: > 100 µM | TGI [11]: > 100 µM | TGI [12]: > 100 µM | TGI [13]: > 100 µM | TGI [57]: > 100 µM | TGI [14]: > 100 µM | TGI [58]: > 100 µM | TGI [15]: > 100 µM | TGI [16]: > 100 µM | TGI [17]: > 100 µM | TGI [18]: > 100 µM | TGI [19]: > 100 µM | TGI [20]: > 100 µM | TGI [21]: > 100 µM | TGI [22]: > 100 µM | TGI [23]: > 100 µM | TGI [24]: > 100 µM | TGI [25]: > 100 µM | TGI [26]: > 100 µM | TGI [27]: > 100 µM | TGI [28]: > 100 µM | TGI [29]: > 100 µM | TGI [30]: > 100 µM | TGI [31]: > 100 µM | TGI [32]: > 100 µM | TGI [33]: > 100 µM | TGI [35]: > 100 µM | TGI [36]: > 100 µM | TGI [37]: > 100 µM | TGI [38]: > 100 µM | TGI [39]: > 100 µM | TGI [40]: > 100 µM | TGI [41]: > 100 µM | TGI [42]: > 100 µM | TGI [43]: > 100 µM | TGI [44]: > 100 µM | TGI [45]: > 100 µM | TGI [47]: > 100 µM | TGI [48]: > 100 µM | TGI [49]: > 100 µM | TGI [50]: > 100 µM | TGI [51]: > 100 µM | TGI [52]: > 100 µM | TGI [53]: > 100 µM | TGI [59]: > 100 µM | TGI [54]: > 100 µM | TGI [55]: > 100 µM | TGI [56]: > 100 µM
